#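 Interpolation was linear, between the two tested concentrations surrounding the appropriate level; five concentrations were tested over 48 hours in 96-well plates. At the GI50, growth is halved.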 The source made the active and inactive calls. Cut-off read from the data, not from the text of the source: active = GI50 up to about 1.1 µM and inactive = higher.
# How the values were obtained:
# Assay in all cases: DTP human tumour cell line panel, 48 h
# SF-268 = system: SF-268
# HCT-116 = system: HCT-116
# DU-145 = system: DU-145
# BT-549 = system: BT-549
# SK-MEL-5 = system: SK-MEL-5
# HOP-62 = system: HOP-62
# OVCAR-3 = system: OVCAR-3
# NCI-H460 = system: NCI-H460
# SK-OV-3 = system: SK-OV-3
# NCI-H522 = system: NCI-H522
# MDA-MB-231 = system: MDA-MB-231
# TK-10 = system: TK-10
# A549 = system: A549
# SN12C = system: SN12C
# UACC-62 = system: UACC-62
# EKVX = system: EKVX
# MOLT-4 = system: MOLT-4
# UO-31 = system: UO-31
# OVCAR-4 = system: OVCAR-4
# NCI-H23 = system: NCI-H23
# COLO 205 = system: COLO 205
# RPMI-8226 = system: RPMI-8226
# SF-295 = system: SF-295
# CCRF-CEM = system: CCRF-CEM
# KM12 = system: KM12
# MDA-MB-435 = system: MDA-MB-435
# HCT-15 = system: HCT-15
# OVCAR-5 = system: OVCAR-5
# Hs-578T = system: Hs-578T
# SK-MEL-28 = system: SK-MEL-28
# HCC 2998 = system: HCC 2998
# M14 = system: M14
# A498 = system: A498
# SW-620 = system: SW-620
# U-251 = system: U-251
# SR = system: SR
# HOP-92 = system: HOP-92
# MDA-N = system: MDA-N
# CAKI-1 = system: CAKI-1
# IGROV-1 = system: IGROV-1
# SK-MEL-2 = system: SK-MEL-2
# PC-3 = system: PC-3
# UACC-257 = system: UACC-257
# SNB-75 = system: SNB-75
# Malme-3M = system: Malme-3M
# SNB-19 = system: SNB-19
# HT-29 = system: HT-29
# SF-539 = system: SF-539
# RXF 393 = system: RXF 393
# 786-0 = system: 786-0
# T47D = system: T47D
# LOX IMVI = system: LOX IMVI
# ACHN = system: ACHN
# NCI-H226 = system: NCI-H226
# HL-60 = system: HL-60
# MCF7 = system: MCF7
# K562 = system: K562
# OVCAR-8 = system: OVCAR-8
# NCI/ADR-RES = system: NCI/ADR-RES
smiles,measurement,setting,value
COC(=O)C(Cc1cn(C(C)n2cc(CC(NC(C)=O)C(=O)OC)c3ccccc32)c2ccccc12)NC(C)=O (stereo unspecified),GI50,SF-268,48.1 µM (inactive)
same,GI50,HCT-116,> 100 µM (inactive)
same,GI50,DU-145,> 100 µM (inactive)
same,GI50,BT-549,> 100 µM (inactive)
same,GI50,SK-MEL-5,73.3 µM (inactive)
same,GI50,HOP-62,> 100 µM (inactive)
same,GI50,OVCAR-3,> 100 µM (inactive)
same,GI50,NCI-H460,63.2 µM (inactive)
same,GI50,SK-OV-3,> 100 µM (inactive)
same,GI50,NCI-H522,12.2 µM (inactive)
same,GI50,MDA-MB-231,44.5 µM (inactive)
same,GI50,TK-10,> 100 µM (inactive)
same,GI50,A549,> 100 µM (inactive)
same,GI50,SN12C,> 100 µM (inactive)
same,GI50,UACC-62,98.2 µM (inactive)
same,GI50,EKVX,25.5 µM (inactive)
same,GI50,MOLT-4,34 µM (inactive)
same,GI50,UO-31,66.4 µM (inactive)
same,GI50,OVCAR-4,> 100 µM (inactive)
same,GI50,NCI-H23,> 100 µM (inactive)
same,GI50,COLO 205,> 100 µM (inactive)
same,GI50,RPMI-8226,83.9 µM (inactive)
same,GI50,SF-295,60.7 µM (inactive)
same,GI50,CCRF-CEM,42.5 µM (inactive)
same,GI50,KM12,32.1 µM (inactive)
same,GI50,MDA-MB-435,> 100 µM (inactive)
same,GI50,HCT-15,> 100 µM
same,GI50,OVCAR-5,> 100 µM (inactive)
same,GI50,Hs-578T,12.5 µM (inactive)
same,GI50,SK-MEL-28,> 100 µM (inactive)
same,GI50,HCC 2998,> 100 µM (inactive)
same,GI50,M14,> 100 µM (inactive)
same,GI50,A498,> 100 µM (inactive)
same,GI50,SW-620,> 100 µM (inactive)
same,GI50,U-251,> 100 µM (inactive)
same,GI50,SR,37.6 µM (inactive)
same,GI50,HOP-92,52.5 µM (inactive)
same,GI50,MDA-N,> 100 µM (inactive)
same,GI50,CAKI-1,> 100 µM (inactive)
same,GI50,IGROV-1,12.9 µM (inactive)
same,GI50,SK-MEL-2,> 100 µM (inactive)
same,GI50,PC-3,> 100 µM (inactive)
same,GI50,UACC-257,> 100 µM (inactive)
same,GI50,SNB-75,0.116 µM (active)
same,GI50,Malme-3M,13.7 µM (inactive)
same,GI50,SNB-19,> 100 µM (inactive)
same,GI50,HT-29,> 100 µM (inactive)
O=C(CCCC(=O)N1CC(CCl)c2ccc([N+](=O)[O-])cc21)N1CC(CCl)c2ccc([N+](=O)[O-])cc21 (stereo unspecified),GI50,SF-268,> 100 µM (inactive)
same,GI50,HCT-116,> 100 µM (inactive)
same,GI50,SF-539,> 100 µM (inactive)
same,GI50,DU-145,81.3 µM (inactive)
same,GI50,BT-549,> 100 µM (inactive)
same,GI50,SK-MEL-5,97.9 µM (inactive)
same,GI50,HOP-62,> 100 µM (inactive)
same,GI50,OVCAR-3,> 100 µM (inactive)
same,GI50,NCI-H460,38.4 µM (inactive)
same,GI50,RXF 393,> 100 µM (inactive)
same,GI50,SK-OV-3,> 100 µM (inactive)
same,GI50,NCI-H522,71.4 µM (inactive)
same,GI50,MDA-MB-231,> 100 µM (inactive)
same,GI50,TK-10,> 100 µM (inactive)
same,GI50,A549,33.3 µM (inactive)
same,GI50,SN12C,> 100 µM (inactive)
same,GI50,UACC-62,> 100 µM (inactive)
same,GI50,MOLT-4,> 100 µM (inactive)
same,GI50,UO-31,> 100 µM (inactive)
same,GI50,OVCAR-4,> 100 µM (inactive)
same,GI50,NCI-H23,> 100 µM (inactive)
same,GI50,786-0,> 100 µM (inactive)
same,GI50,COLO 205,> 100 µM (inactive)
same,GI50,T47D,> 100 µM (inactive)
same,GI50,RPMI-8226,43.7 µM (inactive)
same,GI50,SF-295,> 100 µM (inactive)
same,GI50,CCRF-CEM,> 100 µM (inactive)
same,GI50,MDA-MB-435,> 100 µM (inactive)
same,GI50,HCT-15,> 100 µM
same,GI50,OVCAR-5,> 100 µM (inactive)
same,GI50,LOX IMVI,> 100 µM (inactive)
same,GI50,ACHN,> 100 µM (inactive)
same,GI50,SK-MEL-28,> 100 µM (inactive)
same,GI50,HCC 2998,63.8 µM (inactive)
same,GI50,M14,> 100 µM (inactive)
same,GI50,NCI-H226,> 100 µM (inactive)
same,GI50,A498,34 µM (inactive)
same,GI50,SW-620,> 100 µM (inactive)
same,GI50,HL-60,> 100 µM (inactive)
same,GI50,U-251,> 100 µM (inactive)
same,GI50,MCF7,> 100 µM (inactive)
same,GI50,SR,9.1 µM (inactive)
same,GI50,HOP-92,> 100 µM (inactive)
same,GI50,MDA-N,> 100 µM (inactive)
same,GI50,CAKI-1,> 100 µM (inactive)
same,GI50,SK-MEL-2,> 100 µM (inactive)
same,GI50,PC-3,> 100 µM (inactive)
same,GI50,K562,> 100 µM (inactive)
same,GI50,UACC-257,> 100 µM (inactive)
same,GI50,SNB-19,> 100 µM (inactive)
same,GI50,HT-29,> 100 µM (inactive)
C=Cc1ccccc1C1C(C(=O)OCC)=C(C)N=C2OC(C(=O)OC)C(=O)N21 (stereo unspecified),GI50,SF-268,> 100 µM (inactive)
same,GI50,HCT-116,> 100 µM (inactive)
same,GI50,SF-539,> 100 µM (inactive)
same,GI50,DU-145,> 100 µM (inactive)
same,GI50,BT-549,> 100 µM (inactive)
same,GI50,SK-MEL-5,> 100 µM (inactive)
same,GI50,OVCAR-8,> 100 µM (inactive)
same,GI50,HOP-62,> 100 µM (inactive)
same,GI50,OVCAR-3,> 100 µM (inactive)
same,GI50,NCI-H460,> 100 µM (inactive)
same,GI50,RXF 393,> 100 µM (inactive)
same,GI50,SK-OV-3,> 100 µM (inactive)
same,GI50,NCI-H522,> 100 µM (inactive)
same,GI50,MDA-MB-231,> 100 µM (inactive)
same,GI50,TK-10,> 100 µM (inactive)
same,GI50,A549,> 100 µM (inactive)
same,GI50,SN12C,> 100 µM (inactive)
same,GI50,UACC-62,> 100 µM (inactive)
same,GI50,EKVX,> 100 µM (inactive)
same,GI50,MOLT-4,> 100 µM (inactive)
same,GI50,UO-31,> 100 µM (inactive)
same,GI50,OVCAR-4,> 100 µM (inactive)
same,GI50,NCI-H23,> 100 µM (inactive)
same,GI50,786-0,> 100 µM (inactive)
same,GI50,COLO 205,> 100 µM (inactive)
same,GI50,T47D,> 100 µM (inactive)
same,GI50,RPMI-8226,> 100 µM (inactive)
same,GI50,SF-295,> 100 µM (inactive)
same,GI50,CCRF-CEM,> 100 µM (inactive)
same,GI50,KM12,> 100 µM (inactive)
same,GI50,NCI/ADR-RES,> 100 µM (inactive)
same,GI50,MDA-MB-435,> 100 µM (inactive)
same,GI50,HCT-15,> 100 µM
same,GI50,OVCAR-5,> 100 µM (inactive)
same,GI50,LOX IMVI,> 100 µM (inactive)
same,GI50,ACHN,> 100 µM (inactive)
same,GI50,SK-MEL-28,> 100 µM (inactive)
same,GI50,HCC 2998,> 100 µM (inactive)
same,GI50,M14,> 100 µM (inactive)
same,GI50,NCI-H226,> 100 µM (inactive)
same,GI50,A498,> 100 µM (inactive)
same,GI50,SW-620,> 100 µM (inactive)
same,GI50,HL-60,87.5 µM (inactive)
same,GI50,U-251,> 100 µM (inactive)
same,GI50,MCF7,> 100 µM (inactive)
same,GI50,SR,> 100 µM (inactive)
same,GI50,HOP-92,> 100 µM (inactive)
same,GI50,MDA-N,> 100 µM (inactive)
same,GI50,CAKI-1,> 100 µM (inactive)
same,GI50,IGROV-1,> 100 µM (inactive)
same,GI50,SK-MEL-2,> 100 µM (inactive)
same,GI50,PC-3,> 100 µM (inactive)
same,GI50,K562,> 100 µM (inactive)
same,GI50,UACC-257,> 100 µM (inactive)
same,GI50,SNB-75,> 100 µM (inactive)
same,GI50,Malme-3M,> 100 µM (inactive)
same,GI50,SNB-19,> 100 µM (inactive)
same,GI50,HT-29,> 100 µM (inactive)

# From ChEMBL document CHEMBL1201862, “PubChem BioAssay data set” (2004)
